Laboratory results taken from patent US3991204A, “Method of using benzopyrans as antiparasitic agents” (American Cyanamid Company, priority 1975, dated 1976).
Where “and” joins values, the source holds several entries; their conditions need not be identical. Equal values may be shown once.

Key:
Nematospiroides dubius = assay: Efficacy against Nematospiroides dubius in mice (worm count in treated mice versus control average); assay type: in vivo, Nematospiroides dubius (host: Swiss Webster mice); parameters: key to % Eff. N.d. (class symbol): Active; Inactive; conditions: for inhibition in vivo at 0.05 % / inhibition in vivo at 0.1 %: po, 168 h; for inhibition in vivo at 0.05 %: drug diet 0.05% for 7 days; for inhibition in vivo at 0.1 %: drug diet 0.1% for 7 days
Protocol: (§1) Efficacy of 4-Hydroxy-2-oxo-2H-1-benzopyran-3-carboxanilide derivatives against various helminths in mice
(§2) Six weeks old Swiss Webster mice are orally inoculated with Nematospiroides dubius, Hymenolepis nana and Aspicularis tetraptera. Eighteen days postinoculation the mice are treated with the appropriate drug diet level for 7 days. For single oral dose administration the compound is thoroughly mixed with 0.1 percent agar and orally intubated at the required dosage 22 days postinfection. 10-15,000 Ascaris suum infective eggs are administered to mice after 1 day on diet medication or 3 days prior to single oral dose administration. Determination of efficacy is done by counting all the N. dubius in treated mice versus the control average. For H. nana and A. tetraptera the absence or presence of these parasites in treated mice is the criterior for determining activity. For A. suum activity the following criterion was used. Reduction or elimination of lung pathology and the total number of lung larvae from treated animals was compared to lung larvae recovered from controls.

Aspicularis tetraptera = assay: Efficacy against Aspicularis tetraptera in mice (absence or presence of parasites); assay type: in vivo, Aspicularis tetraptera (host: Swiss Webster mice); parameters: key: Active; Inactive
Protocol: as §1, §2

Hymenolepis nana = assay: Efficacy against Hymenolepis nana in mice (absence or presence of parasites); assay type: in vivo, Hymenolepis nana (host: Swiss Webster mice); parameters: key: Active; Inactive
Protocol: as §1, §2

Ascaris suum = assay: Efficacy against Ascaris suum in mice (lung pathology and lung larvae versus controls); assay type: in vivo, Ascaris suum (host: Swiss Webster mice); parameters: key: Active; Inactive
Protocol: as §1, §2

Haemonchus contortus = assay: Evaluation (efficacy) test in experimentally inoculated sheep, Haemonchus contortus; assay type: in vivo, Haemonchus contortus (host: lambs); conditions: intraruminal dose 50 mg/kg
Protocol: (§3) Evaluation (Efficacy) Test in Sheep
(§4) Lambs are experimentally inoculated with Haemonchus contortus (H.c.), Trichostrongylus axei (T.a.), Ostertagia circumcincta (O.c) and Trichostrongylus colubriformis (T.c.) species. At patency of the parasites the lambs are treated with 50 mg/kg of body weight with the compound under test administered as an intraruminal injection in 0.2 percent agar. Three days post treatment treated lambs and similary inoculated controls are necropsied and examined for parasites. Percent efficacy is calculated by comparing the average worm burden in the treated group with the average worm burden in the control group.

Trichostrongylus axei = assay: Evaluation (efficacy) test in experimentally inoculated sheep, Trichostrongylus axei; assay type: in vivo, Trichostrongylus axei (host: lambs); conditions: intraruminal dose 50 mg/kg
Protocol: as §3, §4

Ostertagia circumcincta = assay: Evaluation (efficacy) test in experimentally inoculated sheep, Ostertagia circumcincta; assay type: in vivo, Ostertagia circumcincta (host: lambs); conditions: intraruminal dose 50 mg/kg
Protocol: as §3, §4

[1] = test system: Trichostrongylus colubriformis; assay: Evaluation (efficacy) test in experimentally inoculated sheep, Trichostrongylus colubriformis; assay type: in vivo, Trichostrongylus colubriformis (host: lambs); conditions: intraruminal dose 50 mg/kg
Protocol: as §3, §4

[2] = test system: Trichostrongylus colubriformis; assay: Evaluation against Trichostrongylus colubriformis in the Mongolian gerbil; assay type: in vivo, Trichostrongylus colubriformis (host: Mongolian gerbil)
Protocol: Evaluation of 3',4'-Dichloro-4-hydroxy-2-oxo-2H-1-benzopyran-3-carboxanilide against Trichlostrongylus colubriformis in the Mongolian Gerbil Monogolian gerbils are inoculated with 2000 T. colubriformis larvae each. Fourteen to 94 days post inoculation the gerbils are treated with the appropiate drug level diet for 6 days. For single oral dose administration the compound is thoroughly mixed with 0.1 percent agar and orally intubated at the required level. After treatment, 24 hour fecal outputs for 3 days are collected from each animal and examined for passage of parasites. Three days post treatment the gerbils are necropsied and examined for parasites. Percent efficacy is calculated using the formula: [formula]

[3] = test system: Trichostrongylus colubriformis; assay: Efficacy against naturally occurring parasitic infestation in sheep, Trichostrongylus colubriformis male; assay type: in vivo, Trichostrongylus colubriformis (host: lambs); conditions: naturally infected sheep, single oral dose 100 mg/kg
Protocol: (§5) Efficacy of 3',4'-Dichloro-4-hydroxy-2-oxo-2H-1-benzopyran-3 -carboxanilideagainst Naturally Occurring Parasitic
(§6) Lambs naturally infected with a number of parasitic species are treated with 100 mg/kg of body weight with the compound under tested administration as a single oral dose. After treatment, 24 hour fecal outputs for 3 days are collected from each animal and examined for the passage of parasites. Three days post treatment the lambs are necropsied and examined for parasites. Percent efficacy is calculated using the formula: [formula]

[4] = test system: Trichostrongylus vitrinus; assay: Efficacy against naturally occurring parasitic infestation in sheep, Trichostrongylus vitrinus male; assay type: in vivo, Trichostrongylus vitrinus (host: lambs); conditions: naturally infected sheep, single oral dose 100 mg/kg
Protocol: as §5, §6

Cooperia punctata = assay: Efficacy against naturally occurring parasitic infestation in sheep, Cooperia punctata; assay type: in vivo, Cooperia punctata (host: lambs); conditions: naturally infected sheep, single oral dose 100 mg/kg
Protocol: as §5, §6

Bunostomum = assay: Efficacy against naturally occurring parasitic infestation in sheep, Bunostomum; assay type: in vivo, Bunostomum (host: lambs); conditions: naturally infected sheep, single oral dose 100 mg/kg
Protocol: as §5, §6

[5] = Heligmosomoides polygyrus, read-out: % Eff. N.d.

O=C(Nc1ccc(Cl)c(Cl)c1)c1c(O)c2ccccc2oc1=O [Example 1, 3',4'-Dichloro-4-hydroxy-2-oxo-2H-1-benzopyran-3-carboxanilide]
inhibition in vivo at 0.05 % (Nematospiroides dubius; [5]): 85%
inhibition in vivo at 0.1 % (Nematospiroides dubius; [5]): 100%
inhibition in vivo at 2000 mg/kg (Nematospiroides dubius; Heligmosomoides polygyrus, single oral dose 2000 mg/kg, read-out: % Eff. N.d.): 55%
% Eff. N.d. (class symbol) (Nematospiroides dubius; single oral dose 100 mg/kg): i
% Eff. N.d. (class symbol) (Nematospiroides dubius; single oral dose 500 mg/kg): i
% Eff. N.d. (class symbol) (Nematospiroides dubius; single oral dose 1000 mg/kg): i
A.t. activity (Aspicularis tetraptera; drug diet 0.1% for 7 days): A
A.t. activity (Aspicularis tetraptera; single oral dose 100 mg/kg): A
A.t. activity (Aspicularis tetraptera; single oral dose 500 mg/kg): A
A.t. activity (Aspicularis tetraptera; single oral dose 1000 mg/kg): i
H.n. activity (Hymenolepis nana; drug diet 0.05% for 7 days): i
H.n. activity (Hymenolepis nana; drug diet 0.1% for 7 days): A
H.n. activity (Hymenolepis nana; single oral dose 100 mg/kg): i
H.n. activity (Hymenolepis nana; single oral dose 500 mg/kg): i
H.n. activity (Hymenolepis nana; single oral dose 1000 mg/kg): i
A.s. activity (Ascaris suum; drug diet 0.05% for 7 days): i
A.s. activity (Ascaris suum; drug diet 0.1% for 7 days): i
A.s. activity (Ascaris suum; single oral dose 100 mg/kg): i
A.s. activity (Ascaris suum; single oral dose 500 mg/kg): A
A.s. activity (Ascaris suum; single oral dose 1000 mg/kg): A
A.s. activity (Ascaris suum; single oral dose 2000 mg/kg): A
% Efficacy H.c. (Haemonchus contortus): 100%
% Efficacy T.a. (Trichostrongylus axei): 0%
% Efficacy O.c. (Ostertagia circumcincta): 86%
% Efficacy T.c. [1]: 35%
% Efficacy ([2]; 0.05% drug in feed × 6 Days): 82%
% Efficacy ([2]; single oral dose 100 mg/kg): 40%
% Efficacy ([2]; single oral dose 500 mg/kg): 100%
% Efficacy T.c. Male [3]: 85% and 61%
% Efficacy T.v. Male [4]: 100% and 79%
% Efficacy C.p. (Cooperia punctata): 100%
% Efficacy Bun. (Bunostomum): 100%

O=C(Nc1cccc(Cl)c1)c1c(O)c2ccccc2oc1=O [Example 2]
inhibition in vivo at 0.05 % (Nematospiroides dubius; [5]): 46%
inhibition in vivo at 0.1 % (Nematospiroides dubius; [5]): 65%
A.t. activity (Aspicularis tetraptera; drug diet 0.05% for 7 days): i
A.t. activity (Aspicularis tetraptera; drug diet 0.1% for 7 days): A
H.n. activity (Hymenolepis nana; drug diet 0.05% for 7 days): i
H.n. activity (Hymenolepis nana; drug diet 0.1% for 7 days): A
A.s. activity (Ascaris suum; drug diet 0.05% for 7 days): i
A.s. activity (Ascaris suum; drug diet 0.1% for 7 days): i

O=C(Nc1ccc(F)cc1)c1c(O)c2ccccc2oc1=O [Example 3]
inhibition in vivo at 0.1 % (Nematospiroides dubius; [5]): 54%
A.t. activity (Aspicularis tetraptera; drug diet 0.1% for 7 days): i
H.n. activity (Hymenolepis nana; drug diet 0.1% for 7 days): A
A.s. activity (Ascaris suum; drug diet 0.1% for 7 days): i

O=C(Nc1cccc(F)c1)c1c(O)c2ccccc2oc1=O [Example 4]
inhibition in vivo at 0.1 % (Nematospiroides dubius; [5]): 77%
A.t. activity (Aspicularis tetraptera; drug diet 0.1% for 7 days): i
H.n. activity (Hymenolepis nana; drug diet 0.1% for 7 days): i
A.s. activity (Ascaris suum; drug diet 0.1% for 7 days): i

O=C(Nc1cc(F)ccc1F)c1c(O)c2ccccc2oc1=O [Example 7]
inhibition in vivo at 0.1 % (Nematospiroides dubius; [5]): 41%
A.t. activity (Aspicularis tetraptera; drug diet 0.1% for 7 days): i
H.n. activity (Hymenolepis nana; drug diet 0.1% for 7 days): i
A.s. activity (Ascaris suum; drug diet 0.1% for 7 days): i

O=C(Nc1ccc(Cl)cc1Cl)c1c(O)c2ccccc2oc1=O [Example 8]
inhibition in vivo at 0.05 % (Nematospiroides dubius; [5]): 94%
inhibition in vivo at 0.1 % (Nematospiroides dubius; [5]): 100%
A.t. activity (Aspicularis tetraptera; drug diet 0.05% for 7 days): A
A.t. activity (Aspicularis tetraptera; drug diet 0.1% for 7 days): A
H.n. activity (Hymenolepis nana; drug diet 0.05% for 7 days): i
H.n. activity (Hymenolepis nana; drug diet 0.1% for 7 days): i
A.s. activity (Ascaris suum; drug diet 0.05% for 7 days): i
A.s. activity (Ascaris suum; drug diet 0.1% for 7 days): i

O=C(Nc1ccc(F)cc1F)c1c(O)c2ccccc2oc1=O [Example 6]
inhibition in vivo at 0.1 % (Nematospiroides dubius; [5]): 94%
A.t. activity (Aspicularis tetraptera; drug diet 0.1% for 7 days): A
H.n. activity (Hymenolepis nana; drug diet 0.1% for 7 days): i
A.s. activity (Ascaris suum; drug diet 0.1% for 7 days): i

O=C(Nc1ccccc1F)c1c(O)c2ccccc2oc1=O [Example 5]
inhibition in vivo at 0.1 % (Nematospiroides dubius; [5]): 66%
A.t. activity (Aspicularis tetraptera; drug diet 0.1% for 7 days): i
H.n. activity (Hymenolepis nana; drug diet 0.1% for 7 days): i
A.s. activity (Ascaris suum; drug diet 0.1% for 7 days): i
